Laboratory results as given in patent US11795135B2, “Prostacyclin compounds, compositions and methods of use thereof” (Insmed Incorporated, priority 2013, dated 2023).
Entries after “also recorded” stand apart in the source; their conditions may differ.

Tests used:
esterase = assay: Esterase mediated conversion of treprostinil compounds to treprostinil; type: in vitro ADME; settings: incubation with esterase at 37° C., 1 hour (FIG. 28, 30)
Method: A set of studies was conducted to determine the conversion kinetics to treprostinil of linear treprostinil compounds versus various branched treprostinil compounds. 0.4 mM of linear C8-TR or branched treprostinil compounds 2-dimethyl-1-propanyl-TR, 3,3-dimethyl-1-butanyl-TR, 2-ethyl-1-butanyl-TR, 5-nonanyl-TR, or 3-pentanyl-TR (see below for structures) were incubated with 0.2 U esterase at 37° C. for 1 hour, and the conversion (% of total) was calculated at 0.25, 0.5, 0.75, or 1 hour incubation time. • C8-TR (i.e., the compound of Formula (A) wherein
The conversion is relative to the C8-TR compound and conversion was measured at 1 hr. post esterase incubation. • C8-TR (i.e., the compound of Formula (A) wherein
Conversion was measured at 1 hr. post esterase incubation. • 4C7-TR (i.e., the compound of Formula (A) wherein

[1] = test system: Rat alveolar NR8383 cells; assay: NR8383 cell proliferation assay (Presto Blue); type: cell-based; settings: unformulated alkyl esters, 72 hour incubation
Method: Rat alveolar NR8383 cells were harvested when the monolayer was 50-90% confluent (use passage 5-11). Because the NR8383 cells include both adherent and non-adherent cells, media was transferred to a 50 mL Falcon tube. To obtain the cells remaining in the flask, 2 mL of plain media was added, and the remaining cells were scraped out of the 75 cm^2 flask with a cell scraper and added to the 50 mL tube. […] SH30071.03)+1×Pen-Strep (Life Technologies, cat #: 15410-122)). Cell number was determined using a hemacytometer. […] Measurements and calculations were made as described above for the CHO-K1 cells.

CHO-K1 cells = assay: CHO-K1 cell proliferation assay (Presto Blue); settings: unformulated alkyl esters, 48 hour incubation
Method: CHO-K1 cells were harvested when the cell monolayer was 50-90% confluent (use passage 4-11). Media was aspirated out of the flask, and cells were rinsed with 2 mL of F12 media. Next, 1 mL of pre-warmed (37° C.) 0.25% trypsin-EDTA (Life Technologies, Cat #: 25300054) was added, and cells were dislodged from the flask by tapping it on the side. Complete growth media (F12 (Life Technologies, Cat #: 31765092)+10% FBS (Hyclone, Cat #: SH30071.03)+1× Pen-Strep (Life Technologies, cat #15140-122) was then added at a volume of 10 mL. Cells were centrifuged at 250×g for 5 minutes at room temperature, and the media was aspirated. The cell pellet was resuspended in 10 mL complete growth media. Cell number was determined using a hemacytometer. Cells were then seeded at 2000 cells per well of a 96-well plate in 100 μL of complete growth media. The plate was incubated overnight at 37° C. and 5% CO2 in a water-jacketed incubator.
The next day, 80 μL of fresh complete media was added to each well, and CHO-K1 cells were challenged with treprostinil compound and composition treatments. The working solutions were prepared at 10× concentration, and following 2 fold serial dilutions, 20 μL aliquots were added per well to arrive at a final 1× concentration. Following a 48 hour incubation at 37° C. and 5% CO2 in a water-jacketed incubator, the inhibitory effect on cell proliferation was determined. Plates were analyzed using 20 μL of Presto Blue reagent (Life Technologies, cat #: A13262) per well. The reagent was mixed, and plates were incubated for 1 hour at 37° C. and 5% CO2 in a water-jacketed incubator. Plates were read using either a CytoFluor Series 4000 (PerSeptive BioSystems) or Synergy Neo microplate reader (BioTek) with emission λ: 590 nm and excitation λ: 560 nm.
at concentrations ranging from 0.55 μM to 125 μM. Following a 48 hour incubation period, the inhibitory effect of the treprostinil derivative compositions on cell proliferation was determined.
C2, C3, C4, C5, C6, C8, C10 or Cu straight chain alkyl, at dosages ranging from 0.098 μM to 25 μM. Following a 48 hour incubation period, the inhibitory effect on cell proliferation was determined.
Following a 72 hour incubation period, the inhibitory effect on cell proliferation was determined. Following a 48 hour incubation period, the inhibitory effect on cell proliferation was determined.
Similarly, CHO-K1 cells were challenged with the treprostinil compositions T612 (R2=C2), T613 (R2=C8) at concentrations ranging from 1.41 μM to 180 μM.

SMILES	esterase mediated conversion rate to treprostinil (comparison) (esterase)	Effect on cell proliferation, NR8383 Cells (0.195 μM-25 μM) [1]	Effect on cell proliferation, CHO-K1 Cells (0.195 μM-25 μM) (CHO-K1 cells)
CCCCCC(O)CCC1C(O)CC2Cc3c(cccc3OCC(=O)OC(CCC)CCCC)CC21 (mixture of isomers) [Compound 4C8-TR]	slower conversion rate than the linear compound C8-TR; also recorded: slower conversion rate than the symmetrical compounds (4C7-TR and 5C9-TR)		
CCCCCC[C@@H](C)OC(=O)COc1cccc2c1C[C@H]1C[C@@H](O)[C@H](CC[C@@H](O)CCCCC)[C@H]1C2 [(R)-2C8-TR]	no significant difference between the conversion rates of R and S isomers		
CCCCCC[C@H](C)OC(=O)COc1cccc2c1C[C@H]1C[C@@H](O)[C@H](CC[C@@H](O)CCCCC)[C@H]1C2 [(S)-2C8-TR]	no significant difference between the conversion rates of R and S isomers		
CCCCC[C@H](O)CC[C@@H]1[C@H]2Cc3cccc(OCC(=O)OC(CCC)CCC)c3C[C@H]2C[C@H]1O [Compound 4C7-TR]	slower conversion rate than the linear compound C8-TR		
CCCCC[C@H](O)CC[C@@H]1[C@H]2Cc3cccc(OCC(=O)OCC)c3C[C@H]2C[C@H]1O [Compound C2-TR, treprostinil ethyl ester]		No detectable cell inhibition	No detectable cell inhibition
CCCCC[C@H](O)CC[C@@H]1[C@H]2Cc3cccc(OCC(=O)OCCC)c3C[C@H]2C[C@H]1O [Compound C3-TR]		No detectable cell inhibition	No detectable cell inhibition
CCCCC[C@H](O)CC[C@@H]1[C@H]2Cc3cccc(OCC(=O)OCCCC)c3C[C@H]2C[C@H]1O [Compound C4-TR]		No detectable cell inhibition	No detectable cell inhibition
CCCCCCOC(=O)COc1cccc2c1C[C@H]1C[C@@H](O)[C@H](CC[C@@H](O)CCCCC)[C@H]1C2 [Compound C6-TR]		No detectable cell inhibition	No detectable cell inhibition
